pIC50: −log10 of the molar value. Like-named read-outs stand apart in the source and are kept apart here.
Legend:
[1] = tested on: Plasmodium falciparum; assay: Antiplasmodial assay (PicoGreen growth inhibition in infected human erythrocytes); format: cell-based
Method: Activity against the causative agent of malaria was performed by culturing human erythrocytes and infecting them with P. falciparum, as described by Trager and Jensen[36]. Briefly, the W2 (Chloroquine resistant) and 3D7 (Chloroquine sensitive) strains of P. falciparum were cultured in RPMI 1640 medium (Sigma-Aldrich, USA) supplemented with 10% human serum (from O+ blood) at a hematocrit of 2% erythrocytes (O+) at 37 °C in a gas mixture of 5% CO2, 5% O2, and 90% N2. Parasites were synchronized by a temperature cycling technique as described by Almanza et al.[37]

[2] = tested on: Leishmania donovani; assay: Antileishmanial assay (PicoGreen); format: cell-based
Method: The anti-leishmania activity was evaluated following the protocol described by Calderon et al.[39], using the fluorescent DNA intercalator PicoGreen (Invitrogen, USA). The species responsible for visceral leishmaniasis, L. donovani, was used for the assays.

[3] = tested on: Trypanosoma cruzi; assay: Antitrypanosomal assay (beta-galactosidase reporter, intracellular amastigotes in Vero cells); format: cell-based; conditions: for pIC50: Trypanosoma cruzi; for Trypanosoma cruzi IC50: key: I: Inactive
Method: Briefly, the expression of the reporter gene for beta-galactosidase (β-Gal) in the Tulahuen clone C4 of T. cruzi is assessed by colorimetry at 570 nm, which correlates with the parasite growth. Assays were performed on the intracellular amastigote form of the parasite infecting African green monkey kidney (Vero) cells, incubated for 120 h at 37 °C with 5% CO2.

[4] = Cytotoxicity SRB assay, HCT-116; conditions: human
Method: (§1) All of the compounds were also evaluated for their cytotoxic properties against six human cancer cell lines (lung carcinoma epithelian (A549), colon carcinoma (HCT-116), pancreatic carcinoma (BXPC-3), breast cancer (MCF-7), cervical epithelium (HeLa), and erythroleukemic (K562)) and a human umbilical vein endothelial cell (HUVEC) line (Table 2).
(§2) The cytotoxicity against HCT-116, BXPC-3, HeLa, MCF-7, A-549, and HUVEC cell lines was evaluated using the SRB method. The cytotoxicity against K562 and Vero cell lines was evaluated using the MTT method. Adriamycin was used as a positive control. All cells were cultivated in T-75 flasks containing 10% Fetal Bovine Serum (FBS), Dulbeco’s Modified Eagle Medium (DMEM) with 2 mM L-glutamine, and 1% penicillin-streptomycin at 37 °C in a humidified atmosphere with 5% CO2. For SRB assay, cells in their log phase of growth were seeded into 96 well micro plates (4 × 10^4 cells per well) and followed by treating with test samples at 10 μM or DMSO. After incubation at 37 °C for 72 h, the cells were fixed with the cold 20% (w/v) TCA for 2 h and stained with Sulforhodamine B (SRB) dye for 0.5 h. The protein-bound dye is dissolved in Tris base solution for OD determination at 540 nm on an ELISA Plate Reader. For MTT assay, cells (5 × 10^3 cells per well) were plated in 96 well micro plates. After cell attachment overnight, new medium containing test compounds or DMSO was added. The plate was incubated for 48 h at 37 °C and incubated with 3-(4,5-dimethylthiazol-2-yl)-2,5-diphenyltetrazolium bromide (MTT) for additional 2–4 hours. The assay plate was then read at 490 nm on an ELISA Plate Reader. The data were obtained from experiments carried out in triplicate.

[5] = Cytotoxicity SRB assay, BXPC-3; conditions: human
Method: as §1, §2

[6] = Cytotoxicity SRB assay, HeLa; conditions: human
Method: as §1, §2

[7] = Cytotoxicity SRB assay, MCF-7; conditions: human
Method: as §1, §2

[8] = Cytotoxicity SRB assay, A-549; conditions: human
Method: as §1, §2

[9] = Cytotoxicity MTT assay, K562; conditions: human
Method: as §1, §2

[10] = Toxicity against Vero cells (MTT); format: cell-based, African green monkey; conditions: African green monkey, MTT, 48 h
Method: It should be emphasized that toxicity is a major concern of drug discovery and development. The above active compounds were evaluated for in vitro toxicity against a mammalian kidney cell line (Vero). The selectivity index (SI) was used as the evaluation parameter of drug potential of the test samples by comparing the toxicity on the Vero cell line (CC50) and the selective inhibitory effect on P. falciparum, L. donovani or T. cruzi (IC50) calculated here as CC50/IC50.
Adriamycin was used as a positive control.

[11] = Cytotoxicity SRB assay, HUVEC; conditions: human
Method: as §1, §2

[12] = Erythrocyte, in vitro, W2 and 3D7 strains cultured, strain of the values not stated, read-out: Plasmodium falciparum IC50
[13] = in vitro, read-out: Leishmania donovani IC50
[14] = Tulahuen clone C4, intracellular amastigotes in Vero cells, 120 h
[15] = BXPC-3 pancreatic carcinoma cells
[16] = Vero cells (mammalian kidney cell line)
[17] = 3D7, Erythrocyte, read-out: Plasmodium falciparum IC50
[18] = read-out: Leishmania donovani IC50

Row | Structure (SMILES) | pIC50 [1, 12] | pIC50 [2, 13] | Trypanosoma cruzi IC50 [3, 14] | IC50 at 72 h ([4]; HCT-116 colon carcinoma cells) | IC50 at 72 h [5, 15] | IC50 at 72 h ([6]; HeLa cervical epithelium cells) | IC50 at 72 h ([7]; MCF-7 breast cancer cells) | IC50 at 72 h ([8]; A-549 lung carcinoma cells) | IC50 at 48 h ([9]; K562 erythroleukemic cells) | pIC50 [1, 17] | pIC50 [2, 18] | IC50 at 72 h [4] | IC50 at 72 h [5] | IC50 at 72 h [6] | IC50 at 72 h [7] | IC50 at 72 h [8] | IC50 at 48 h [9] | other results
1 | COc1cc(O)c2c(c1)/C=C/C[C@H](O)[C@@H](O)C(=O)/C=C/C[C@H](C)OC2=O [Compound 4] | < 4.51 | 4.82 | I | > 10 µM | > 10 µM | > 10 µM | > 10 µM | > 10 µM | > 10 µM |  |  |  |  |  |  |  |  | 
2 | COc1cc(O)c2c(c1Cl)/C=C/C[C@H](O)[C@H](O)[C@@H](O)/C=C/C[C@H](C)OC2=O [Compound 16] | < 4.51 | < 4.80 | I | > 10 µM | > 10 µM | > 10 µM | > 10 µM | > 10 µM | > 10 µM |  |  |  |  |  |  |  |  | CC50 at 48 h [10, 16]: 260 µM
3 | O=C(Cn1ccnc1[N+](=O)[O-])NCc1ccccc1 [benznidazole, reference compound] |  |  |  |  |  |  |  |  |  |  |  |  |  |  |  |  |  | pIC50 ([3]; Vero, control drug, sentence ends with ref 41, read-out: IC50 of control drug, antitrypanosomal assay): 5.41
4 | COc1cc(O)c2c(c1)/C=C/C[C@H](O)[C@H](O)[C@@H](O)CCC[C@H](C)OC2=O [Compound 10] |  |  | I |  |  |  |  |  |  | < 4.51 | < 4.80 | > 10 µM | > 10 µM | > 10 µM | > 10 µM | > 10 µM | > 10 µM | CC50 at 48 h [10]: 274 µM
5 | CCN(CC)CCCC(C)Nc1ccnc2cc(Cl)ccc12 (centres unmarked) [chloroquine, reference compound] |  |  |  |  |  |  |  |  |  |  |  |  |  |  |  |  |  | pIC50 ([1]; Erythrocyte, read-out: IC50 of positive control, antiplasmodial assay): 7.48
6 | C[C@@H]1[C@H](O)[C@@H](C)/C=C/C=C/C=C/C=C/C=C/C=C/C=C/[C@H](O[C@@H]2O[C@H](C)[C@@H](O)[C@H](N)[C@@H]2O)C[C@@H]2O[C@](O)(C[C@@H](O)C[C@@H](O)[C@H](O)CC[C@@H](O)C[C@@H](O)CC(=O)O[C@H]1C)C[C@H](O)[C@H]2C(=O)O [Amphotericin B, reference compound] |  |  |  |  |  |  |  |  |  |  |  |  |  |  |  |  |  | pIC50 ([2]; positive control, sentence ends with ref 40, read-out: IC50 of positive control, antileishmanial assay): 7.12
7 | COc1cc(O)c2c(c1)/C=C/C[C@H]1OC(C)(C)O[C@H]1C(=O)/C=C/C[C@H](C)OC2=O [Compound 25] | < 4.51 | < 4.80 | I |  |  |  |  |  |  |  |  | > 10 µM | > 10 µM | > 10 µM | > 10 µM | > 10 µM | > 10 µM | IC50 at 72 h [11]: > 10 µM
8 | COc1cc(O)c2c(c1)/C=C/C[C@H](O)[C@@H]1OC(C)(C)O[C@H]1/C=C/C[C@H](C)OC2=O [Compound 1, cochliomycin A] | 4.51 | < 4.80 | I | > 10 µM | > 10 µM | > 10 µM | > 10 µM | > 10 µM | > 10 µM |  |  |  |  |  |  |  |  | CC50 at 48 h [10, 16]: 96 µM
9 | COc1cc(O)c2c(c1)/C=C/C[C@H](O)[C@H](O)[C@@H](O)/C=C/C[C@H](C)OC2=O [Compound 8, zeaenol] |  |  | I |  |  |  |  |  |  | < 4.51 | < 4.80 | > 10 µM | > 10 µM | > 10 µM | > 10 µM | > 10 µM | > 10 µM | CC50 at 48 h [10]: 227 µM; IC50 at 72 h [11]: > 10 µM
10 | COc1cc(O)c2c(c1Cl)/C=C/C[C@H](O)[C@@H]1OC(C)(C)O[C@H]1CCC[C@H](C)OC2=O [Compound 18] |  |  | I |  |  |  |  |  |  | < 4.51 | < 4.80 | > 10 µM | > 10 µM | > 10 µM | > 10 µM | > 10 µM | > 10 µM | CC50 at 48 h [10]: 102 µM
11 | CCC(=O)Oc1cc(OC)cc2c1C(=O)O[C@@H](C)C/C=C/[C@H](OC(=O)CC)[C@@H](OC(=O)CC)[C@@H](OC(=O)CC)C/C=C/2 [Compound 14] | < 4.51 | < 4.80 | I | > 10 µM | > 10 µM | > 10 µM | > 10 µM | > 10 µM | > 10 µM |  |  |  |  |  |  |  |  | 
12 | COc1cc(OC(C)=O)c2c(c1Cl)/C=C/C[C@H](OC(C)=O)[C@H](OC(C)=O)[C@@H](OC(C)=O)CCC[C@H](C)OC2=O [Compound 19] |  |  | I |  |  |  |  |  |  | < 4.51 | < 4.80 | > 10 µM | > 10 µM | > 10 µM | > 10 µM | > 10 µM | > 10 µM | 
13 | COc1cccc2c1C(=O)c1c(O)c3c(c(O)c1C2=O)C[C@@](O)(C(=O)CO)C[C@@H]3O[C@H]1C[C@H](N)[C@H](O)[C@H](C)O1 [Adriamycin, reference compound] |  |  |  | 0.21 µM | 0.033 µM | 0.6 µM | 0.86 µM | 0.16 µM | 0.25 µM |  |  |  |  |  |  |  |  | 
14 | COc1cc(O)c2c(c1)/C=C/C[C@@H](O)[C@@H](O)C(=O)/C=C/C[C@H](C)OC2=O [Compound 5] | < 4.51 | < 4.80 | I | > 10 µM | > 10 µM | > 10 µM | > 10 µM | > 10 µM | > 10 µM |  |  |  |  |  |  |  |  | 
15 | COc1cc(O)c2c(c1Cl)/C=C/C[C@H](O)[C@H](O)[C@@H](O)CCC[C@H](C)OC2=O [Compound 2, cochliomycin C] |  |  | I |  |  |  |  |  |  | < 4.51 | < 4.80 | > 10 µM | > 10 µM | > 10 µM | > 10 µM | > 10 µM | > 10 µM | 
16 | COc1cc2c(c(OC(=O)c3cccs3)c1)C(=O)O[C@@H](C)C/C=C/C(=O)[C@@H](OC(=O)c1cccs1)[C@@H](OC(=O)c1cccs1)C/C=C/2 [Compound 22] | 4.70 | 5.52 |  |  |  |  |  |  |  |  |  |  |  |  |  |  |  | pIC50 ([3]; Tulahuen clone C4, intracellular amastigotes in Vero cells, 120 h, read-out: Trypanosoma cruzi IC50): 5.20; CC50 at 48 h [10, 16]: 11.5 µM
17 | COc1cc2c(c(OC(C)=O)c1)C(=O)O[C@@H](C)C/C=C/C(=O)[C@@H](OC(C)=O)[C@H](OC(C)=O)C/C=C/2 [Compound 24] | < 4.51 | 4.92 |  | > 10 µM |  | > 10 µM |  | > 10 µM |  |  |  |  |  |  |  |  |  | CC50 at 48 h [10, 16]: 3.2 µM; IC50 at 72 h ([11]; HUVEC (umbilical vein endothelial cells)): > 10 µM
18 | COc1cc(O)c2c(c1Cl)/C=C/C[C@H](O)[C@@H]1OC(C)(C)O[C@H]1/C=C/C[C@H](C)OC2=O [Compound 17] | < 4.51 | < 4.80 | I | > 10 µM | > 10 µM | > 10 µM | > 10 µM | > 10 µM | > 10 µM |  |  |  |  |  |  |  |  | CC50 at 48 h [10, 16]: 143 µM
19 | COc1cc(O)c2c(c1)/C=C/C[C@H](O)[C@H](O)C(=O)CCC[C@H](C)OC2=O [Compound 9] |  |  | I |  |  |  |  |  |  | < 4.51 | < 4.80 | > 10 µM | > 10 µM | > 10 µM | > 10 µM | > 10 µM | > 10 µM | CC50 at 48 h [10]: 131 µM
